Laboratory results: patent US20250360185A1, “COMPOSITIONS COMPRISING PEDF-DERIVED SHORT PEPTIDES FOR THE TREATMENT OF DRY EYE DISEASES” (BRIM Biotechnology, Inc., priority 2022, published 2025)

System: subjects with DED
Test: Visual analog scale (VAS) ocular symptom ratings, clinical study with CAE model
Assay type: in vivo, human
Conditions: for VAS Burning/Stinging Change from Baseline, ANCOVA LS Mean Difference (SE), BRM421 OS − Placebo / VAS Burning/Stinging Change from Baseline, Two-Sample t-test Sample Mean Difference (SE), BRM421 OS − Placebo / VAS Eye Dryness Change from Baseline, ANCOVA LS Mean Difference (SE), BRM421 OS − Placebo / VAS Eye Dryness Change from Baseline, Two-Sample t-test Sample Mean Difference (SE), BRM421 OS − Placebo / VAS Photophobia Change from Baseline, ANCOVA LS Mean Difference (SE), BRM421 OS − Placebo / VAS Photophobia Change from Baseline, Two-Sample t-test Sample Mean Difference (SE), BRM421 OS − Placebo / VAS Burning/Stinging Change from Baseline, ANCOVA LS Mean (SE) / VAS Eye Dryness Change from Baseline, ANCOVA LS Mean (SE) / VAS Photophobia Change from Baseline, ANCOVA LS Mean (SE) / VAS Burning/Stinging Change from Baseline, Mean (SD) / VAS Eye Dryness Change from Baseline, Mean (SD) / VAS Photophobia Change from Baseline, Mean (SD): ITT; for VAS Burning/Stinging Change from Baseline, ANCOVA LS Mean (SE) / VAS Eye Dryness Change from Baseline, ANCOVA LS Mean (SE) / VAS Photophobia Change from Baseline, ANCOVA LS Mean (SE) / VAS Burning/Stinging Change from Baseline, Mean (SD) / VAS Eye Dryness Change from Baseline, Mean (SD) / VAS Photophobia Change from Baseline, Mean (SD): baseline last Pre-CAE measure; for VAS Burning/Stinging Change from Baseline, Mean (SD) / VAS Eye Dryness Change from Baseline, Mean (SD) / VAS Photophobia Change from Baseline, Mean (SD): 0-100 mm line
Protocol: A multi-center, randomized, double masked, placebo controlled clinical study was conducted to assess the safety and efficacy of BRM421 ophthalmic solution (OS) in subjects with DED using a controlled adverse environment (CAE®) model (Ora, Inc., Andover, MA, USA). CAE® uses controlled ocular surface stress to exacerbate the signs and symptoms of DED in a safe and controllable manner.
During the first visit (Day-7±1), the subjects were screened, evaluated before CAE®, exposed to CAE®, evaluated after CAE®, and started with the placebo run-in period (7±1 days). During the 7-day study run-in period (for the purpose of subject selection) prior to randomization, all subjects received Placebo OS bilaterally, three times daily (TID). During the second visit, subjects were evaluated before CAE®, exposed to CAE®, and evaluated after CAE®. These evaluations formed the baseline measurements. The subjects were then randomized into two groups to receive either BRM421 ophthalmic solution (OS) or Placebo OS (Vehicle) bilaterally three times daily (TID) for 14 days from Visit 2 to Visit 4.
During these visits, subjects were evaluated for symptom efficacy. Specifically, visual analog scale (VAS) was measured by asking subjects to rate each ocular symptom due to ocular dryness. Symptoms assessed include burning/stinging, itching, foreign body sensation, blurred vision, eye dryness, photophobia, and pain.

[1] = Visit 3, post-CAE evaluations as baselines

Sequence: SLGAEQRTESIIHRALYYDLISSPDIHGT (listed as Homo sapiens) [BRM421, PEDF-derived short peptide, 29mer, residues 93-121; tested as BRM421 ophthalmic solution (OS)]
- VAS burning/stinging compared to placebo (FIG. 4C, FIG. 4D) (DED and cataract, with or without cataract surgery): significant improvements
- VAS burning/stinging, subjects with cataract surgery compared to subjects without cataract surgery (FIG. 4D versus FIG. 4C): more improvements
- VAS Burning/Stinging Change from Baseline, ANCOVA LS Mean Difference (SE), BRM421 OS − Placebo (Visit 3 (Day 8)): −6.8 (2.31) mm
- VAS Burning/Stinging Change from Baseline, Two-Sample t-test Sample Mean Difference (SE), BRM421 OS − Placebo (Visit 3 (Day 8)): −5.9 (2.58) mm
- VAS Eye Dryness Change from Baseline, ANCOVA LS Mean Difference (SE), BRM421 OS − Placebo (Visit 3 (Day 8)): −5.3 (2.33) mm
- VAS Eye Dryness Change from Baseline, Two-Sample t-test Sample Mean Difference (SE), BRM421 OS − Placebo (Visit 3 (Day 8)): −4.7 (2.53) mm
- VAS Photophobia Change from Baseline, ANCOVA LS Mean Difference (SE), BRM421 OS − Placebo (Visit 3 (Day 8)): −4.5 (2.19) mm
- VAS Photophobia Change from Baseline, Two-Sample t-test Sample Mean Difference (SE), BRM421 OS − Placebo (Visit 3 (Day 8)): −4.2 (2.33) mm
- VAS Burning/Stinging Change from Baseline, ANCOVA LS Mean (SE) (Visit 3 (Day 8)): −9.8 (1.67) mm
- VAS Eye Dryness Change from Baseline, ANCOVA LS Mean (SE) (Visit 3 (Day 8)): −9.4 (1.69) mm
- VAS Photophobia Change from Baseline, ANCOVA LS Mean (SE) (Visit 3 (Day 8)): −6.2 (1.59) mm
- VAS Burning/Stinging Change from Baseline, Mean (SD) (Visit 3 (Day 8)): −8.8 (20.35) mm
- VAS Eye Dryness Change from Baseline, Mean (SD) (Visit 3 (Day 8)): −8.4 (19.22) mm
- VAS Photophobia Change from Baseline, Mean (SD) (Visit 3 (Day 8)): −5.6 (15.49) mm
- Mean changes from baseline in burning/stinging, eye dryness and photophobia compared to placebo (Visit 3, ITT Population, FIG. 2A): significant difference
- VAS burning/stinging relative to placebo (FIG. 2B) [1]: significant improvement
- VAS dryness relative to placebo (FIG. 2B) [1]: less significant improvement
- VAS dryness and VAS burning/stinging relative to placebo (FIG. 2B) (Visit 3, pre-CAE evaluations as baselines): significant improvements
- VAS Burning/Stinging Change from Baseline, ANCOVA LS Mean Difference (SE), BRM421 OS − Placebo (Visit 4 (Day 15)): −3.8 (2.58) mm
- VAS Burning/Stinging Change from Baseline, Two-Sample t-test Sample Mean Difference (SE), BRM421 OS − Placebo (Visit 4 (Day 15)): −2.9 (2.85) mm
- VAS Eye Dryness Change from Baseline, ANCOVA LS Mean Difference (SE), BRM421 OS − Placebo (Visit 4 (Day 15)): 0.8 (2.66) mm
- VAS Eye Dryness Change from Baseline, Two-Sample t-test Sample Mean Difference (SE), BRM421 OS − Placebo (Visit 4 (Day 15)): 1.2 (2.80) mm
- VAS Photophobia Change from Baseline, ANCOVA LS Mean Difference (SE), BRM421 OS − Placebo (Visit 4 (Day 15)): −3.5 (2.26) mm
- VAS Photophobia Change from Baseline, Two-Sample t-test Sample Mean Difference (SE), BRM421 OS − Placebo (Visit 4 (Day 15)): −3.2 (2.40) mm
- VAS Burning/Stinging Change from Baseline, ANCOVA LS Mean (SE) (Visit 4 (Day 15)): −10.0 (1.86) mm
- VAS Eye Dryness Change from Baseline, ANCOVA LS Mean (SE) (Visit 4 (Day 15)): −9.2 (1.92) mm
- VAS Photophobia Change from Baseline, ANCOVA LS Mean (SE) (Visit 4 (Day 15)): −7.8 (1.63) mm
- VAS Burning/Stinging Change from Baseline, Mean (SD) (Visit 4 (Day 15)): −9.0 (21.26) mm
- VAS Eye Dryness Change from Baseline, Mean (SD) (Visit 4 (Day 15)): −8.4 (21.48) mm
- VAS Photophobia Change from Baseline, Mean (SD) (Visit 4 (Day 15)): −7.3 (16.50) mm
- VAS dryness, burning/stinging and photophobia versus baseline (FIG. 2A) (Visits 3 and 4 relative to Visit 2 pre-CAE baseline): showed improvements over the baseline
- Onset of effects (inferred from significant difference to placebo at Visit 3): relatively fast onset
- VAS burning/stinging (FIG. 4B) (patients with both DED and cataract, pre-CAE and post-CAE evaluations): very significant improvements
- VAS burning/stinging (FIG. 4A) (patients with only DED (without cataract), pre-CAE or post-CAE evaluations): no significant improvements
- VAS dryness (FIG. 4G, FIG. 4H) (subjects with cataract regardless of the surgery status, pre-CAE and post-CAE evaluations): significant improvements
